This passage reports inhibition results from paper PMC6934184, “Selective DNA-PKcs inhibition extends the therapeutic index of localized radiotherapy and chemotherapy” (The Journal of Clinical Investigation, 2019).

For the assay, the target named is T1, MINK1 (Homo sapiens, UniProt Q8N4C8).
T1 construct: purchased Thermo Fisher Scientific (Life Technologies) SelectScreen
The experiment in a line: SelectScreen Z'LYTE. The class given is biochemical. In short, it runs like this:
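Percent values come from Thermo SelectScreen profiling of NU5455, combining activity and binding assays. CSF1R was run in Z'LYTE format at Km app ATP, and CAMK1 in Adapta format with ATP listed at 10.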

T1 sequence (Q8N4C8 whole entry): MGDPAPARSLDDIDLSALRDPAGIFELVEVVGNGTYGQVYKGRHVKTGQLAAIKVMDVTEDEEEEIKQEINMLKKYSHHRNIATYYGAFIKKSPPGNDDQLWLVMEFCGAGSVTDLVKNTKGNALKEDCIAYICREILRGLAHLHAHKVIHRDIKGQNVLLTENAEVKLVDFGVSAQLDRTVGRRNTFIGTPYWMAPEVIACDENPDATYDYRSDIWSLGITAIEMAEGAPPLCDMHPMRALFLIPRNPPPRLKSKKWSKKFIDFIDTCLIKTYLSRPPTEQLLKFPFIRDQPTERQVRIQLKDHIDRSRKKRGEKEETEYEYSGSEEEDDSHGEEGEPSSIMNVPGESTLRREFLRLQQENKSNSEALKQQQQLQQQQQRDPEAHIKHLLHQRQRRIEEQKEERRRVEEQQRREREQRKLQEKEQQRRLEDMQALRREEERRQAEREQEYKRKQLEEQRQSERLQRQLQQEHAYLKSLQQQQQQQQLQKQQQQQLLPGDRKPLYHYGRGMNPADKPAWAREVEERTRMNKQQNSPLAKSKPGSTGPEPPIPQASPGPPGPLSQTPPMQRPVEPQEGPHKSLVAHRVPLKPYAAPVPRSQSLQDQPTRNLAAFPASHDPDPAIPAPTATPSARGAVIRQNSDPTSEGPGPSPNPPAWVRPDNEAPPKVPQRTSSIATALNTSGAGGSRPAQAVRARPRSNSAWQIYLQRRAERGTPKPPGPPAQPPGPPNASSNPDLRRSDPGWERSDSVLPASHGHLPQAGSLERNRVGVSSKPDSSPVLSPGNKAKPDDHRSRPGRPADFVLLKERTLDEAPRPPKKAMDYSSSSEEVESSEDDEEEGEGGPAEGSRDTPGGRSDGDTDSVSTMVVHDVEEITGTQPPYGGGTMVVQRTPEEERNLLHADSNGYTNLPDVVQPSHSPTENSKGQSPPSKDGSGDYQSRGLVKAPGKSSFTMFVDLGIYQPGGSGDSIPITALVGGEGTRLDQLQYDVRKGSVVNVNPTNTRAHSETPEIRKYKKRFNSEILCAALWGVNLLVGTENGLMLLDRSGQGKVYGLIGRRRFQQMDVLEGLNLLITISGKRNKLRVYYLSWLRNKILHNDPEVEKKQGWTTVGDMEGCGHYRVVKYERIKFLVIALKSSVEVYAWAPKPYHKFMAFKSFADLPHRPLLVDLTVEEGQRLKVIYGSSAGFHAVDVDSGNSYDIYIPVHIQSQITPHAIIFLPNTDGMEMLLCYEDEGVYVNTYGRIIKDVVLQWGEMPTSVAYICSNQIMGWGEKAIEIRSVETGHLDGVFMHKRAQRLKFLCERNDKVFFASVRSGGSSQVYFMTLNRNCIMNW

The term inhibition denotes the drop in the measured response relative to a control, in per cent. Compound `CN(C(=O)CN1CCOCC1)c1ccc2sc3c(-c4cccc5c(=O)cc(N6CC7CCC(C6)O7)oc45)cccc3c2c1` [NU5455] came in with an inhibition at 1 µM of 4.6%.
